Data published in patent publication US6395783B1, “Treatment of PCP addiction and PCP addiction-related behavior” (Brookhaven Science Associates, LLC, priority 2000, dated 2002).

Key:
[1] = system: extracellular DA concentrations in the nucleus accumbens (NAcc); assay: In vivo microdialysis of PCP-induced extracellular DA in the nucleus accumbens of freely moving rats; design: species or system rat (Sprague-Dawley)
Description: (§1) We explored the effects of increased endogenous GABA activity on PCP-induced extracellular DA concentrations in the prefrontal cortex (PFC) and nucleus accumbens (NAcc) of freely moving rats.
(§2) All animals were used under an IACUC-approved protocol and with strict adherence to the NIH guidelines. Adult male Sprague-Dawley rats (200-300 g, Taconic Farms), housed in the animals care facility under 12:12 light/dark conditions, were placed into 6 groups (n=3-6), anesthetized and siliconized guide cannulae were stereotactically implanted into the right NAcc (2.0 mm anterior and 1.0 mm lateral to bregms, and 7.0 mm ventral to the cortical surface) and prefrontal cortex (PFC) at least 4 days prior to study. Microdialysis probes (2.0 mm, Bioanalytical Systems, BAS, West Lafayette, Ind.) were positioned within the guide cannulae and artificial cerebrospinal fluid (ACSF, 155.0 mM […]) was administered through the probe using a CMA/100 microinfusion pump (BAS) at a flow rate of […].
Animals were placed in bowls, and probes were inserted and flushed with ACSF overnight. On the day of the study, a minimum of three samples were injected to determine baseline stability. Samples were collected for 20 min. and injected on-line (CMA/160, BAS). The average dopamine concentration of these three stable samples was defined as control (100%), and all subsequent treatment values were transformed to a percentage of that control. Upon establishing a stable baseline, the PCP was administered by intraperitoneal (i.p.) injection. The high performance liquid chromatography (HPLC) system consists of a BAS reverse-phase column (3.0μ C-18), a BAS LC-4C electrochemical transducer with a dual/glassy carbon electrode set at 650 mV, a computer that analyzes data on-line using a commercial software package (Chromograph Bioanalytical Systems), and a dual pen chart recorder. The mobile phase (flow rate 1.0 ml/min) consisted of 7.0% methanol, 50 mM sodium phosphate monobasic, 1.0 mM sodium octyl sulfate, and 0.1 mm […], pH 4.0. DA eluted at 7.5 min.
Gamma-vinyl GABA (GVG), an irreversible inhibitor of GABA-transaminase, was administered by intraperitoneal injection 2.5 hours prior to PCP (7 mg/kg). In all studies, animals were placed in the microdialysis bowls the night before the experiment and artificial cerebrospinal fluid (ACSF) was perfused through the microdialysis probes at a flow rate of 2.0 μl/min. At the end of each study, animals were sacrificed and their brains were removed and sectioned for probe placement verification.
Levels of extracellular DA were sampled from the NAcc continuously using a stereoaxically implanted probe. […]

[2] = system: extracellular DA concentrations in the prefrontal cortex (PFC); assay: In vivo microdialysis of PCP-induced extracellular DA in the prefrontal cortex of freely moving rats; design: species or system rat (Sprague-Dawley); details: p<0.01
Description: as §1, §2
Animals were placed in bowls, and probes were inserted and flushed with ACSF overnight. On the day of the study, a minimum of three samples were injected to determine baseline stability. Samples were collected for 20 min. and injected on-line (CMA/160, BAS). […]

[3] = system: synaptic dopamine (11C-raclopride binding); assay: PET study with 11C-raclopride, GVG and PCP in primates; format: in vivo, Papio anubis baboons

SMILES | attenuation of the DA response to PCP in the NAcc ([1]; GVG 150 mg/kg i.p. 2.5 hours prior to PCP (7 mg/kg)) | attenuation of the DA response to PCP in the NAcc ([1]; GVG 300 mg/kg i.p. 2.5 hours prior to PCP (7 mg/kg), p<0.01) [%] | attenuation of the DA response to PCP in the NAcc ([1]; GVG 500 mg/kg i.p. 2.5 hours prior to PCP (7 mg/kg), p<0.001) [%] | attenuation of PFC DA activity (response to PCP) ([2]; GVG pretreatment (300 mg/kg group) i.p. 2.5 hours prior to PCP (7 mg/kg)) [%] | effect on PCP-induced increases in neostriatal synaptic DA assessed by PET ([3]; primate (baboon) brain) | effect on PCP-induced diminution of 11C-raclopride binding (increase in synaptic dopamine) ([3]; prior intravenous 300 mg/kg GVG, PCP 1 mg/kg, four baboons, all cases) | increase of DA concentrations above baseline in the NAcc ([1]; PCP alone, 7 mg/kg i.p., baseline = 100%, p<0.01) [%] | increase of DA concentrations above baseline in the PFC ([2]; PCP alone, 7 mg/kg i.p., baseline = 100%) [%]
C=CC(N)CCC(=O)O (racemic) [GVG, 4-amino-5-hexanoic acid] | no significant inhibition | 62 | 67 | 67 | significantly attenuated | prevented the diminution of ^11C-ralcopride binding | – | –
c1ccc(C2(N3CCCCC3)CCCCC2)cc1 [PCP, Phencyclidine] | – | – | – | – | – | – | 117 | 407
